Experimental data reported in patent US10858352B2, “Pharmaceutical compounds” (Heptares Therapeutics Limited, priority 2018, dated 2020).
Like-named read-outs stand apart in the source and are kept apart here.

Tests used:
[1] = target: T1, human muscarinic M1 receptor (Homo sapiens, UniProt P11229); test: Alphascreen Surefire phospho-ERK1/2 functional assay, M1; type: cell-based; conditions: for EC50 / pEC50 M1: agonist 5 min, 37° C.; for Emax: CHO, read-out: % Emax cf. ACh (M1), CHO cells stably expressing human M1; for Emax / % Emax cf. ACh (M1): Emax relative to ACh
T1 sequence (P11229 1-460): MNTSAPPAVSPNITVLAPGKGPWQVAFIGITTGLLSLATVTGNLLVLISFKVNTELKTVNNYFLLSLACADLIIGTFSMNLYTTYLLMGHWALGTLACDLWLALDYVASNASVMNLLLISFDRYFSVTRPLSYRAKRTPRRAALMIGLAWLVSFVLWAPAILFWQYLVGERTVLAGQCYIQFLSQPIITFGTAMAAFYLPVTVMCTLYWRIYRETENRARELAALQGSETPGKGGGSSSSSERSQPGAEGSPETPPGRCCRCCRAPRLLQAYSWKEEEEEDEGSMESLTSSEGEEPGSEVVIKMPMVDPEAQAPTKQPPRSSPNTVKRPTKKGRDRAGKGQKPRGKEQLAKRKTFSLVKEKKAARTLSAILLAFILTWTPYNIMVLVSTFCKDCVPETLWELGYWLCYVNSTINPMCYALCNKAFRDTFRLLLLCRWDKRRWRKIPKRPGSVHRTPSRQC
Experimental: (§1) ERK1/2 phosphorylation is a downstream consequence of both Gq/11 and Gi/o protein coupled receptor activation, making it highly suitable for the assessment of M1, M3 (Gq/11 coupled) and M2, M4 receptors (Gi/o coupled), rather than using different assay formats for different receptor subtypes. CHO cells stably expressing the human muscarinic M1, M2, M3 or M4 receptor were plated (25K/well) onto 96-well tissue culture plates in MEM-alpha+10% dialysed FBS. Once adhered, cells were serum-starved overnight. Agonist stimulation was performed by the addition of 5 μL agonist to the cells for 5 min (37° C.). Media was removed and 50 μL of lysis buffer added. After 15 min, a 4 μL sample was transferred to 384-well plate and 7 μL of detection mixture added. […]

[2] = target: T2, human muscarinic M4 receptor (Homo sapiens, UniProt P08173); test: Alphascreen Surefire phospho-ERK1/2 functional assay, M4; type: cell-based; conditions: for EC50: read-out: pEC50 M4 (converted); for Emax: CHO, read-out: % Emax cf. ACh (M4), CHO cells stably expressing human M4; for Emax / % Emax cf. ACh (M4): Emax relative to ACh
T2 construct: expressed in transfected cells
T2 sequence (P08173 1-479): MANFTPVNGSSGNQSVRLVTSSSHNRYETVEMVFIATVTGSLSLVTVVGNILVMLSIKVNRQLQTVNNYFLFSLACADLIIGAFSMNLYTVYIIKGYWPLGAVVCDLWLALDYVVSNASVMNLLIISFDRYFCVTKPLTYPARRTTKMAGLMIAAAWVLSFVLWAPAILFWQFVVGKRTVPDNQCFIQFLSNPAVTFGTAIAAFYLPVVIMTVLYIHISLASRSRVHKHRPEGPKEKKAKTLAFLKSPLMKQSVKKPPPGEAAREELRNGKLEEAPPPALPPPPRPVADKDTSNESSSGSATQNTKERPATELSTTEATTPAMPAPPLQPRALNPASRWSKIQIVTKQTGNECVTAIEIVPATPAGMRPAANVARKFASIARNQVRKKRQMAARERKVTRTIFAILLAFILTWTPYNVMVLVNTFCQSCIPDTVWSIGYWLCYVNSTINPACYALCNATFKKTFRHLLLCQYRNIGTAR
Experimental: as §1

[3] = CHO cells stably expressing human M1, read-out: pEC50 M1 (converted)
[4] = CHO cells stably expressing human M4, agonist 5 min, 37° C.
[5] = CHO cells stably expressing human M1
[6] = pEC50 M1, CHO cells stably expressing human M1
[7] = CHO cells stably expressing human M4

| Compound | EC50 [1, 3] | Emax [1] | EC50 [2, 4] | Emax [2] | % Emax cf. ACh (M1) [1, 5] | EC50 [1, 6] | % Emax cf. ACh (M4) [2, 7] | pEC50 M4 [2, 4] | pEC50 M1 [1, 5] |
| --- | --- | --- | --- | --- | --- | --- | --- | --- | --- |
| Cc1noc(N2CCCC(N3CCC4(CC3)CNC(=O)O4)CC2)n1 (racemic) [10-3 Racemic mixture] | 372 nM | 97% | > 20000 nM | 10% |  |  |  |  |  |
| CCN(C(C)=O)C1CCN(C2CCCN(c3nc(C)no3)CC2)CC1 (racemic) [10-11 Racemic mixture] | 3980 nM | 56% | 219 nM | 101% |  |  |  |  |  |
| CCOC(=O)[C@H]1[C@@H]2CN(C3CC4(CCN(c5nc(C)no5)C4)C3)C[C@@H]21 (single isomer, unassigned) [2-3 Isomer 2] | > 20000 nM | 9% | 513 nM | 32% |  |  |  |  |  |
| Cc1noc(N2CC3(CCC(N4CCC(n5cccn5)CC4)C3)C2)n1 (single isomer, unassigned) [3-1 Isomer 2] | 8320 nM | 58% | 1230 nM | 68% |  |  |  |  |  |
| Cc1noc(N2CC3CC(C2)C3N2CCC(n3cccn3)CC2)n1 (single isomer, unassigned) [5-1 Isomer 1] | > 20000 nM | 9% | 1260 nM | 55% |  |  |  |  |  |
| Cc1noc(N2C3CCC2CC(N2CCC4(CC2)CNC(=O)C4)C3)n1 (single isomer, unassigned) [6-2 Isomer 1] |  |  | > 20000 nM |  | (34) % | 158 nM | (9) % |  |  |
| Cc1noc(N2C3CCC2CC(N2CCC4(CC2)CNC(=O)C4)C3)n1 (single isomer, unassigned) [6-2 Isomer 2] |  |  | 170 nM |  | (81) % | 63.1 nM | (39) % |  |  |
| Cc1noc(N2C3CCC2CC(N2CCC4(CC2)CNC(=O)O4)C3)n1 (single isomer, unassigned) [6-4 Isomer 1] | 240 nM |  | > 20000 nM |  | (49) % |  | (15) % |  |  |
| Cc1noc(N2C3CCCC2CC(N2CCC(n4cccn4)CC2)C3)n1 (single isomer, unassigned) [8-1 Isomer 2] | > 20000 nM | 24% | 1260 nM | 38% |  |  |  |  |  |
| Cc1noc(N2C3CCCC2CC(N2CCC4(CC2)CNC(=O)C4)C3)n1 (single isomer, unassigned) [8-2 Isomer 1] | 214 nM | 30% | > 20000 nM | 9% |  |  |  |  |  |
| Cc1noc(N2C3CCCC2CC(N2CCC(C(=O)NC4(C)CCC4)CC2)C3)n1 (single isomer, unassigned) [8-4 Isomer 1] | 575 nM | 98% | 646 nM | 76% |  |  |  |  |  |
| Cc1noc(N2CCCC(N3CCC(n4cccn4)CC3)CC2)n1 (single isomer, unassigned) [10-1 Isomer 1] | 1350 nM | 32% | 129 nM | 73% |  |  |  |  |  |
| Cc1noc(N2CCCC(N3CCC(n4cccn4)CC3)CC2)n1 (single isomer, unassigned) [10-1 Isomer 2] | 6610 nM |  | 525 nM |  | (43) % |  | (72) % |  |  |
| Cc1noc(N2CCCC(N3CCC4(CC3)CNC(=O)C4)CC2)n1 (single isomer, unassigned) [10-2 Isomer 2] | 490 nM |  |  |  | (53) % |  | (15) % | <4.70 |  |
| CCC1NC(=O)OC12CCN(C1CCCN(c3nc(C)no3)CC1)CC2 (single isomer, unassigned) [10-4 Isomer 1] | 676 nM |  | 100 nM |  | (123) % |  | (85) % |  |  |
| CCC1NC(=O)OC12CCN(C1CCCN(c3nc(C)no3)CC1)CC2 (single isomer, unassigned) [10-4 Isomer 2] | 55 nM |  | 23.4 nM |  | (58) % |  | (64) % |  |  |

| Compound | EC50 [1, 3] | Emax [1] | EC50 [2, 4] | Emax [2] | % Emax cf. ACh (M1) [1, 5] | EC50 [1, 6] | % Emax cf. ACh (M4) [2, 7] | pEC50 M4 [2, 4] | pEC50 M1 [1, 5] |
| --- | --- | --- | --- | --- | --- | --- | --- | --- | --- |
| CCC1NC(=O)OC12CCN(C1CCCN(c3nc(C)no3)CC1)CC2 (single isomer, unassigned) [10-4 Isomer 3] | 9330 nM |  | 2190 nM |  | (81) % |  | (71) % |  |  |
| CCC1NC(=O)OC12CCN(C1CCCN(c3nc(C)no3)CC1)CC2 (single isomer, unassigned) [10-4 Isomer 4] | > 20000 nM |  | 871 nM |  | (18) % |  | (36) % |  |  |
| Cc1noc(N2CCCC(N3CCC4(CC3)OC(=O)NC4(C)C)CC2)n1 (single isomer, unassigned) [10-5 Isomer 1] | > 20000 nM | 21% | 219 nM | 33% |  |  |  |  |  |
| Cc1noc(N2CCCC(N3CCC(N4C[C@H](F)C[C@@H]4CO)CC3)CC2)n1 (single isomer, unassigned) [10-7 Isomer 2] | 4270 nM |  | 398 nM |  | (70) % |  | (76) % |  |  |
| Cc1noc(N2CCCC(N3CCC(N4CC(F)(F)C[C@@H]4CO)CC3)CC2)n1 (single isomer, unassigned) [10-8 Isomer 1] | 676 nM | 37% | 93.3 nM | 91% |  |  |  |  |  |
| Cc1noc(N2CCCC(N3CCC(N4CC(F)(F)C[C@@H]4CO)CC3)CC2)n1 (single isomer, unassigned) [10-8 Isomer 2] | 1550 nM |  | 295 nM |  | (35) % |  | (73) % |  |  |
| CC[C@H]1CCC(=O)N1C1CCN(C2CCCN(c3nc(C)no3)CC2)CC1 (single isomer, unassigned) [10-9 Isomer 2] | 1320 nM | 53% | 479 nM | 56% |  |  |  |  |  |
| Cc1noc(N2CCCC(N3CCC(N4CCCC4c4cnn(C)c4)CC3)CC2)n1 (single isomer, unassigned) [10-10 Isomer 1b] | > 20000 nM |  | 513 nM | 56% | (6) % |  |  |  |  |
| Cc1noc(N2CCCC(N3CCC(N4CCCC4c4cnn(C)c4)CC3)CC2)n1 (single isomer, unassigned) [10-10 Isomer 2a] |  |  | 1450 nM |  | (3) % |  | (52) % |  | <4.70 |
| Cc1noc(N2CCCC(N3CCC(N4CCCC4c4cnn(C)c4)CC3)CC2)n1 (single isomer, unassigned) [10-10 Isomer 2b] |  |  | 316 nM |  | (14) % |  | (72) % |  | <4.70 |
| CNC(=O)N1CCC[C@H]1C1CCN(C2CCCN(c3nc(C)no3)CC2)CC1 (single isomer, unassigned) [10-12 Isomer 1] | > 20000 nM | 22% | 309 nM | 100% |  |  |  |  |  |
| CNC(=O)N1CCC[C@H]1C1CCN(C2CCCN(c3nc(C)no3)CC2)CC1 (single isomer, unassigned) [10-12 Isomer 2] |  |  | 55 nM |  | (24) % |  | (119) % |  | <4.70 |
| Cc1noc(N2CC3CC(N4CCC(n5cccn5)CC4)CC2C3)n1 (single isomer, unassigned) [11-1 Isomer 2] | 3160 nM | 48% | 1050 nM | 69% |  |  |  |  |  |
| Cc1noc(N2CC3CCC2CC3N2CCC3(CC2)CNC(=O)C3)n1 (single isomer, unassigned) [12-1 Isomer 1] | 603 nM |  | > 20000 nM |  | (58) % |  | (5) % |  |  |
| Cc1noc(N2C3CCC2CC(N2CCC(C(=O)NC4(C(F)(F)F)CCC4)CC2)C3)n1 (single isomer, unassigned) [12-7 Isomer 2] | 537 nM | 109% | 2000 nM | 109% |  |  |  |  |  |
